Results published in PMC10755736, “Modulating Liquid–Liquid Phase Separation of Nck Adaptor Protein against Enteropathogenic Escherichia coli Infection” (ACS Central Science, 2023).
Non-standard residues stand in square brackets, D forms with d. Residues, ends and D or L forms follow the SMILES beside them. *: point of attachment. Biotin = O=C1N[C@H]2[C@H](CS[C@H]2CCCCC(=O)*)N1; Benzoyl(4-SO2F) = O=C(c1ccc(S(=O)(=O)F)cc1)*; pY = N[C@@H](Cc1ccc(OP(=O)(O)O)cc1)C(=O)O; Dap = NC[C@H](N)C(=O)O

Legend:
Nck/N-WASP/3pY = target: T1, Nck/N-WASP/3pY (Homo sapiens, UniProt P16333); test: Turbidity assay of Nck/N-WASP/3pY solution; format: biochemical; settings: Nck droplets; text cites Figures S12 and S13
T1 construct: GST (followed by PreScission/HRV 3C site) (N, cleaved yes); made in house; host or cells: E. coli BL21(DE3)
Method: Next, we explored the intervention of Nck/N-WASP/3pY LLPS using pY peptides (Figure 3a). Three pY-containing peptides extracted from different Tir sequences were synthesized, namely, peptides Y474, Y751, and Y147 (Figure 3b).
Figure 3 pY peptides disrupt Nck/N-WASP/3pY LLPS. (a) Sequences of synthetic pY peptides. […] Nck: 20 μM; N-WASP: 10 μM; 3pY: 10 μM. Scale bars, 20 μm. (c) Peptide Y474 rapidly decreases the turbidity of the Nck/N-WASP/3pY solution in around 20 min. Nck: 20 μM, N-WASP: 10 μM, 3pY: 10 μM. […] Nck: 20 μM, N-WASP: 10 μM, 3pY: 10 μM.
(Cytiva, Hong Kong) using a gradient from 100 to 500 mM NaCl and Superdex 75 10/300 GL column (Cytiva, Hong Kong) in 25 mM HEPES, 150 mM NaCl, and 2 mM βME at pH 7.5.
Proteins were buffer-exchanged through a Hi-trap desalting column (Cytiva, Hong Kong) to the reaction buffer. For Cy5 labeling, the buffer was 0.1 M sodium bicarbonate buffer at pH 8.3. For FITC labeling, the buffer was 50 mM sodium borate at pH 8.5. […]
Fluorescence Recovery after Photobleaching (FRAP) Assay
Fluorescence recovery in vitro was conducted with a DMi8 microscope (Leica, Germany). […]
The fluorescence intensity was quantified and normalized by ImageJ.
Fluorescence recovery after photobleaching experiments inside mammalian cells was conducted with a two-photon imaging system using a custom-built upright microscope, based on a previously used imaging setup. […]

Nck-SH2 = test: Mass spectrometric analysis of Nck-p1 conjugate; format: binding
Method: We next identified the residues in Nck-SH2 that are involved in the reaction with p1 by mass spectrometry. […] The Nck–p1 conjugate was digested with trypsin, and peptide fragments were analyzed with an in-line EASY-spray source and nano-LC UltiMate 3000 HPLC system interfaced with an Elite mass spectrometer, operated in the data-dependent acquisition (DDA) mode with one full MS scan at R = 60,000 (m/z = 200) mass followed by HCD MS/MS scans. […] The fragmentation spectral analysis of [EEHIpYXEVAAD(α)] + [HFKVQLK(β)] extracted by pLabel v2.4.3.0 (Figure 5a and Figure S6 in the Supporting Information)[38],[39] confirmed the ligand-directed conjugation of Nck-SH2 protein with p1 peptide. The underlined lysine residue in the β-chain sequence indicated the cross-linked site on the predicted Nck Lys331 residue. Next, we mutated Nck Lys331 to Ala, expressed and purified the Nck-SH2K331A mutant. […]
The reaction mixture of Nck and p1 were digested with trypsin. Digested peptides were analyzed with an in-line EASY-spray source and nano-LC UltiMate 3000 high-performance liquid chromatography system (Thermo Fisher, USA) interfaced with an Elite mass spectrometer (Thermo Fisher, USA). The eluted peptides were detected by the Elite mass spectrometer, which was operated in data-dependent mode with one full MS scan at R = 60,000 (m/z = 200) mass, followed by MS/MS scans. […]

CC[C@H](C)[C@H](NC(=O)[C@H](Cc1c[nH]cn1)NC(=O)[C@H](CCC(=O)O)NC(=O)[C@H](CCC(=O)O)NC(=O)CCCC[C@@H]1SC[C@@H]2NC(=O)N[C@@H]21)C(=O)N[C@@H](Cc1ccc(OP(=O)(O)O)cc1)C(=O)N[C@@H](CNC(=O)c1ccc(S(=O)(=O)F)cc1)C(=O)N[C@@H](CCC(=O)O)C(=O)N[C@H](C(=O)N[C@@H](C)C(=O)N[C@@H](C)C(=O)N[C@@H](CC(=O)O)C(N)=O)C(C)C [p1] (Biotin-EEHI[pY][Dap](Benzoyl(4-SO2F))EVAAD-NH2; N-terminus and C-terminus assumed)
reduction of solution turbidity, p1 and Y474 compared (Nck/N-WASP/3pY): reduce the turbidity of the solution
conjugation stoichiometry by LC-MS (Nck-SH2; Nck and Nck-p1 conjugate): only one p1 was conjugated with Nck
reaction site on Nck-SH2 (Nck-SH2; trypsin digest, MS/MS, K331A mutation): Lys331
